{
  "source": "paper PMC9681850",
  "about": "“Structural basis of synthetic agonist activation of the nuclear receptor REV-ERB” (Nature Communications, 2022)",
  "key": {"[1]": {"tested_on": "C2C12 cells", "assay": "relative gene expression of REV-ERB responsive genes by qPCR", "assay_type": "cell-based, mouse", "conditions": "C2C12, 5uM; single replicates; listed as SR1267", "from_the_text": "We next determined whether STL1267 can regulate characterized REV-ERB modulated genes in cell lines expressing REV-ERB naturally. Five micromolar doses of both drugs were used in cell-based experiments from this point on. REV-ERB is an established component of the core molecular clock repressing the expression of core clock gene Bmal1[6],[27] as well as others[28],[29]. […] In skeletal muscle, REV-ERB agonism increases the expression of a wide variety of genes important in mitochondrial function.\nThe human hepatocellular carcinoma cell line, HepG2 cells (ATCC HB-8065), were cultured in 10% FBS 1% L-Glu MEM at 37 °C in a humidified atmosphere of 5% CO2. Prior to RNA extraction cells were treated with either DMSO or REV-ERB agonist for 24 h. The C2C12 proliferating mouse myoblast cells (ATCC, CRL-1772) were cultured in 10% FBS DMEM at 37 °C in a humidified atmosphere of 5% CO2. Prior to RNA extraction cells were treated with either DMSO or REV-ERB agonist for 24 h. Prior to crystal violet cytotoxicity assay, cells were treated with either DMSO or REV-ERB agonist for 48 h.\nMouse tissue was homogenized using a bullet blender. DNA/protein was removed by phase separation using BCP/chloroform. The supernatant (RNA containing fraction) was collected, and RNA was precipitated using isopropanol. The RNA pellets were washed with 75% ethanol and resolubilized in RNAse free water. The purity of the RNA was tested by agarose gel prior to cDNA synthesis. Total RNA was harvested from HepG2 and C2C12 using the RNeasy mini kit according to manufacturer’s instructions (Qiagen).\nIsolated RNA was reverse transcribed into cDNA using the qScript^TMcDNA Synthesis kit according to the manufacturer’s instructions (QuantaBio). Quantative PCR (qPCR) was performed on a QuantStudio^TM 6 Flex or QuantStudio^TM 7 Flex (Life Technologies) using SYBR^TM Select Master Mix (Applied BioSystems) with select primers (Table S2). Gene expression was normalized to Ppia for all data sets. Oligonucleotide sequences are provided in Supplementary Table 2."}, "[2]": {"target": "CAR (Homo sapiens, UniProt Q14994)", "sequence (Q14994 whole entry)": "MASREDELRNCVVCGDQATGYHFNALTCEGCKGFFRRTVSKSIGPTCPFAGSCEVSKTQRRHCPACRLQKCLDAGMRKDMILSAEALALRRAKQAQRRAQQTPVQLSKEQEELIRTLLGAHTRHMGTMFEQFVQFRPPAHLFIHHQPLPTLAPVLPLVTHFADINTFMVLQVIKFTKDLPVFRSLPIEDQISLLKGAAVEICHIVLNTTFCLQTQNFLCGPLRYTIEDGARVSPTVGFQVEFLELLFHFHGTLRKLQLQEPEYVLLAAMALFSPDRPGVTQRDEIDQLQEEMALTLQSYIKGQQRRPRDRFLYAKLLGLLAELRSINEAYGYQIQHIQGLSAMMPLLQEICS", "assay": "CAR assay", "assay_type": "cell-based"}, "[3]": {"target": "PXR (Homo sapiens, UniProt O75469)", "sequence (O75469 whole entry)": "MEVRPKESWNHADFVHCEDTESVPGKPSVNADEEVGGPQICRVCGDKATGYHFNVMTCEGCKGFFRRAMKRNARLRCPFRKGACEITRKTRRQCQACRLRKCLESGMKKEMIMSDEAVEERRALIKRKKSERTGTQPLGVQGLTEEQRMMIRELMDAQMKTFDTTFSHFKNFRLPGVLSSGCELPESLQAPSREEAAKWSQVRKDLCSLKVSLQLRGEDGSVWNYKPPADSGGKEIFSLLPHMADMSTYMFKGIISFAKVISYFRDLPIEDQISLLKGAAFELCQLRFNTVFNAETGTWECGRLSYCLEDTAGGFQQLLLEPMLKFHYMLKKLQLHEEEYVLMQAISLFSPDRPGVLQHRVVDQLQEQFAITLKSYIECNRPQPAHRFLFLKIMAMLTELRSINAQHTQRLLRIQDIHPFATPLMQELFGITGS", "assay": "PXR assay", "assay_type": "cell-based", "conditions": "relative to 5μM rifampicin", "from_the_text": "We thank the reviewers for the constructive comments, and we have responded to each of the […]\nOverall, this is a commendable structure-function study on the transcriptional repressor, REV-ERBα. It includes the identification of an agonist that belongs to the non-heme class of small ligands. The study combines cell-based and in vitro, in vivo, and crystallographic analyses of the ligand-receptor molecular complex.\nHowever, as a spring-board for therapeutic drug discovery, there are a few additional issues that may need to be clarified.\n1. In the HEK293 2-hybrid assay, the ERB agonists are described as activators of transcription.\nPerhaps, they would be more appropriately described as 'repressors'.\nWe have updated the manuscript to clarify this issue. In the original manuscript, we used the following to describe how the 2-hybrid assay switches agonists from repressors to activators to allow for better resolution of activity, “This format of the assay essentially functions as a mammalian 2-hybrid assay and detects REVERB agonists as activators of transcription effectively enhancing the sensitivity of such an assay from the typical one hybrid system that detects enhancement of transcriptional repression.” […]"}, "[4]": {"tested_on": "proliferating C2C12 mouse myoblast cells", "assay": "cell viability by crystal violet staining", "assay_type": "cell-based", "conditions": "for cell viability (Fig. 2b source data): crystal violet, normalized to DMSO, single replicates; for reduction in cellular viability: proliferating C2C12 cells", "experimental": "(§1) Cellular viability was tested in two cell types, human hepatocarcinoma HepG2 cells and proliferating C2C12 mouse myoblast cells.\n(§2) Data are presented as mean ± SEM. Source data are available as a Source Data file.\n(§3) The human hepatocellular carcinoma cell line, HepG2 cells (ATCC HB-8065), were cultured in 10% FBS 1% L-Glu MEM at 37 °C in a humidified atmosphere of 5% CO2. Prior to RNA extraction cells were treated with either DMSO or REV-ERB agonist for 24 h. The C2C12 proliferating mouse myoblast cells (ATCC, CRL-1772) were cultured in 10% FBS DMEM at 37 °C in a humidified atmosphere of 5% CO2. Prior to RNA extraction cells were treated with either DMSO or REV-ERB agonist for 24 h. […]\n(§4) […] Media was removed, and cells were incubated with 0.5% crystal violet solution for 20 min at room temperature with mild agitation. Cells were washed four times with tap water before being air drying overnight. Cells were incubated in methanol for 20 min with mild agitation. Absorbance was read at 570 nm, and readings were normalized to vehicle (DMSO) treated cells."}, "[5]": {"tested_on": "HepG2 cells", "assay": "cell viability by crystal violet staining", "assay_type": "cell-based, human", "conditions": "for cell viability (Fig 2a source data): crystal violet, normalized to DMSO, single replicates", "experimental": "as §1, §2, §3, §4"}, "[6]": {"target": "T1, full length human REV-ERBα (Homo sapiens, UniProt P20393)", "T1 construct": "expressed in transfected cells; host or cells: HEK293 cells with stably integrated GAL4-UAS luciferase reporter", "T1 sequence (P20393 whole entry, the tested form may be a part)": "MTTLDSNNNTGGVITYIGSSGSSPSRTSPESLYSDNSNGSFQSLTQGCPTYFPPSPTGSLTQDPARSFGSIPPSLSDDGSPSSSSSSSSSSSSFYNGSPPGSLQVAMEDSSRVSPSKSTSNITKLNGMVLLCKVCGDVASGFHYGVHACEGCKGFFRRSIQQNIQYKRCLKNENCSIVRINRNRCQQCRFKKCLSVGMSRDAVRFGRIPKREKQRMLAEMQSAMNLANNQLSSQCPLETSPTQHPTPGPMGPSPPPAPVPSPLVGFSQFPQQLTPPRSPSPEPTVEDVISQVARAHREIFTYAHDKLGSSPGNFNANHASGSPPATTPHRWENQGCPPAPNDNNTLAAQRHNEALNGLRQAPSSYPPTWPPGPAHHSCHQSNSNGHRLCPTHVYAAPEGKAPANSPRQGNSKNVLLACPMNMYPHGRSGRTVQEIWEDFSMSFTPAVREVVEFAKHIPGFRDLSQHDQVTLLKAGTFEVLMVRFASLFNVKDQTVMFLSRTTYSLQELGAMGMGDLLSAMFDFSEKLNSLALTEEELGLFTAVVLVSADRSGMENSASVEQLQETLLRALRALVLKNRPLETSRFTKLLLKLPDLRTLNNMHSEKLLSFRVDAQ", "T1 sequence (O75376 whole entry partner, the tested form may be a part)": "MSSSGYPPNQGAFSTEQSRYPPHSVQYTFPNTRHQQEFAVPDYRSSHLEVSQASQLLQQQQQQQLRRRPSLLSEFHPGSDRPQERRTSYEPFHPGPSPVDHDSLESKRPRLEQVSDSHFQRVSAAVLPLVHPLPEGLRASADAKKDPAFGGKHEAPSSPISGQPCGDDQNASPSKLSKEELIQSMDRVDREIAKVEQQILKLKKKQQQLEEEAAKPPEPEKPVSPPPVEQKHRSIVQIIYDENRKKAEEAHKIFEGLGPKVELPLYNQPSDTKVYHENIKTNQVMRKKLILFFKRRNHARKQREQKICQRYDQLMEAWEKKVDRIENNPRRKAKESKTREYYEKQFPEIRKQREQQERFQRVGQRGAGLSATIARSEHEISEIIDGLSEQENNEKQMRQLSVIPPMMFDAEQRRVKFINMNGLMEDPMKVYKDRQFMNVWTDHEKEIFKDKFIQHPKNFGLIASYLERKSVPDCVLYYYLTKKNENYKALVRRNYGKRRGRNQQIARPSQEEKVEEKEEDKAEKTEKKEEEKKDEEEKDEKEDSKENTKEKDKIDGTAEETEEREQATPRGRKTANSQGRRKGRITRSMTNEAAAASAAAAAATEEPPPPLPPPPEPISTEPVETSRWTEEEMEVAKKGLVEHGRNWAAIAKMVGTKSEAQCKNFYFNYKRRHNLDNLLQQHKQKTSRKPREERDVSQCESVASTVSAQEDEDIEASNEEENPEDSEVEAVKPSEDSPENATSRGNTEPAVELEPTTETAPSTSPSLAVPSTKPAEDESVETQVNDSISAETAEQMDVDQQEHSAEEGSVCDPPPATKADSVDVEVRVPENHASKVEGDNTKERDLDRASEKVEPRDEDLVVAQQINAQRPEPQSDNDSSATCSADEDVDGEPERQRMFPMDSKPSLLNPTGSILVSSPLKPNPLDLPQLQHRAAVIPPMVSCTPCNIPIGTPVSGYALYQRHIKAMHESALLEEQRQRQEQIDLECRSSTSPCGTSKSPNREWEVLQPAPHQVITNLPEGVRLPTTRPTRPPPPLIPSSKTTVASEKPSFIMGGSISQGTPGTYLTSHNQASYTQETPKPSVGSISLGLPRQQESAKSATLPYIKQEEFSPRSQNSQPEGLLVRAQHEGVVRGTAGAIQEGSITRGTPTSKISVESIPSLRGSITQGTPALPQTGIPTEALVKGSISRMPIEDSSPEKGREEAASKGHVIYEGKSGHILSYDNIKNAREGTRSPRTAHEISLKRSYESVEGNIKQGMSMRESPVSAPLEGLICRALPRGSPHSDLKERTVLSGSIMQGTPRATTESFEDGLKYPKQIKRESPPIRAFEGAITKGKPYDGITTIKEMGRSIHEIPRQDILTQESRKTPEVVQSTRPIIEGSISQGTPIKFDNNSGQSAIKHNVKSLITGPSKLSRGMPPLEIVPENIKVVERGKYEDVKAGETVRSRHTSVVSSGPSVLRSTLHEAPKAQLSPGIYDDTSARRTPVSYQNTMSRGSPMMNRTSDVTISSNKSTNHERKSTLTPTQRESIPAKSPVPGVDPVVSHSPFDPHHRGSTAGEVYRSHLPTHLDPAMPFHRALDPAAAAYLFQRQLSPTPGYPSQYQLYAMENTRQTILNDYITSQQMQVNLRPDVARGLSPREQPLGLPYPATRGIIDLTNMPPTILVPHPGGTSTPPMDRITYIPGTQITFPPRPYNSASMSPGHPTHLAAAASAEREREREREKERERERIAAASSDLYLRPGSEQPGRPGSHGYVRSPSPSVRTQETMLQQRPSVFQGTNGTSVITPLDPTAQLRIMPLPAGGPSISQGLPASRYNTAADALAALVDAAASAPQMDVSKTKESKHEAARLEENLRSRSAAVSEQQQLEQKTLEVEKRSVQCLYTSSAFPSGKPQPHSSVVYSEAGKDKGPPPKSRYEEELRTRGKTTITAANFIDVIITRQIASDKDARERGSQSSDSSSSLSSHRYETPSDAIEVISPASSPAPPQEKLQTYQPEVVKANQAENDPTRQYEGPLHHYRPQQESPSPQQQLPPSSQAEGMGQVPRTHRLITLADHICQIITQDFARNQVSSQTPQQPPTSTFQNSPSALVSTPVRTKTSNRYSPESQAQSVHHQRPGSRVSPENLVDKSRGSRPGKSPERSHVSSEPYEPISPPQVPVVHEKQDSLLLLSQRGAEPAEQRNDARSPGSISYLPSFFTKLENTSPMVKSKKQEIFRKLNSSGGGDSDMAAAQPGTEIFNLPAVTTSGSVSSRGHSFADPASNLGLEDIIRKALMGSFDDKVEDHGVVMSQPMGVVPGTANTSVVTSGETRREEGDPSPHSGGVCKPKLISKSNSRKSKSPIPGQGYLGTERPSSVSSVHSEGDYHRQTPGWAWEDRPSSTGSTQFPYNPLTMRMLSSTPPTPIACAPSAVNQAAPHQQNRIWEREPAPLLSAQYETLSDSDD", "assay": "cell-based two-hybrid luciferase reporter assay (REV-ERBα-FL/GAL4-DBD + NCoR-Vp16, HEK UAS-luc cells)", "conditions": "HEK293 UAS-luc cells"}},
  "note": "“And” between values parts separate entries of the source, which are not always exact repeats. Equal values may be shown once.",
  "data": [
    {"smiles": "Clc1nnc2ccc(Oc3ccccc3-c3ccccc3)nn12", "note": "[STL1267]", "values": [
      {"measurement": "Ppargca1 relative gene expression", "setting": "[1]", "value": "8.425 and 7.081 and 5.71"},
      {"measurement": "lcad relative gene expression", "setting": "[1]", "value": "25.4657 and 24.2235 and 14.2579"},
      {"measurement": "lkb1 relative gene expression", "setting": "[1]", "value": "4.349 and 3.556 and 2.4615"},
      {"measurement": "mt-Nd1 relative gene expression", "setting": "[1]", "value": "3.873 and 3.557 and 4.501"},
      {"measurement": "mt-co1 relative gene expression", "setting": "[1]", "value": "7.748 and 5.296 and 5.742"},
      {"measurement": "nampt relative gene expression", "setting": "[1]", "value": "4.112 and 2.537 and 1.9657"},
      {"measurement": "scad relative gene expression", "setting": "[1]", "value": "25.4657 and 24.2235 and 14.2579"},
      {"measurement": "sirt1 relative gene expression", "setting": "[1]", "value": "4.33 and 3.474 and 1.956"},
      {"measurement": "vlcad relative gene expression", "setting": "[1]", "value": "14.2905 and 16.1127 and 7.599"},
      {"measurement": "activity at CAR", "setting": "[2]", "value": "did not have activity"},
      {"measurement": "activity at PXR, of the activity of 5μM rifampicin", "setting": "[3]", "value": 18, "unit": "%"},
      {"measurement": "cell viability (Fig. 2b source data)", "setting": "[4]; C2C12, 1 uM", "value": "92.0631 and 77.3068 and 87.5705 and 94.4131 and 98.2145 and 106.232 and 102.707"},
      {"measurement": "cell viability (Fig. 2b source data)", "setting": "[4]; C2C12, 2 uM", "value": "85.9463 and 90.0242 and 93.8256 and 90.5771 and 97.5579 and 103.433 and 103.26 and 102.949"},
      {"measurement": "cell viability (Fig. 2b source data)", "setting": "[4]; C2C12, 5 uM", "value": "92.9616 and 90.6808 and 91.0609 and 85.0824 and 101.498 and 105.679 and 104.435 and 94.6204"},
      {"measurement": "cell viability (Fig. 2b source data)", "setting": "[4]; C2C12, 10 uM", "value": "88.9874 and 85.3588 and 77.2722 and 82.9397 and 90.0242 and 92.8925 and 94.5859 and 92.7197"},
      {"measurement": "cell viability (Fig. 2b source data)", "setting": "[4]; C2C12, 20 uM", "value": "77.9634 and 78.8964 and 75.3024 and 82.4905 and 83.4236 and 81.9721 and 84.5985 and 90.5771"},
      {"measurement": "reduction in cellular viability", "setting": "[4]; 10 μM", "value": "~ 10%"},
      {"measurement": "reduction in cellular viability", "setting": "[4]; 20 μM", "value": "~ 20%"},
      {"measurement": "cell viability (Fig 2a source data)", "setting": "[5]; HepG2, 1uM", "value": "100.259 and 103.289 and 114.098 and 100.562 and 101.976 and 107.785 and 108.29 and 110.916"},
      {"measurement": "cell viability (Fig 2a source data)", "setting": "[5]; HepG2, 2uM", "value": "94.905 and 99.6528 and 117.735 and 107.532 and 113.391 and 106.219 and 106.421 and 103.794"},
      {"measurement": "cell viability (Fig 2a source data)", "setting": "[5]; HepG2, 5uM", "value": "93.8443 and 82.581 and 107.936 and 102.38 and 83.3891 and 98.2385 and 86.8237 and 96.4202"},
      {"measurement": "cell viability (Fig 2a source data)", "setting": "[5]; HepG2, 10uM", "value": "88.9955 and 75.7624 and 90.8643 and 100.208 and 77.7322 and 91.3189 and 89.0965 and 88.0359"},
      {"measurement": "cell viability (Fig 2a source data)", "setting": "[5]; HepG2, 20uM", "value": "83.6922 and 74.4997 and 94.7535 and 87.2782 and 90.0057 and 93.8948 and 95.4101 and 87.8338"},
      {"measurement": "effect on cell viability", "setting": "[5]; HepG2 cells, up to the maximum dose examined (20 μM)", "value": "no adverse effects on cell viability"},
      {"measurement": "maximal efficacy for recruitment of NCoR-VP16 vs. SR9009", "setting": "[6]", "value": "~ 8 fold"},
      {"measurement": "EC50", "setting": "[6]; 24 h, read-out: EC50, recruitment of NCoR-Vp16", "value": 1.8, "unit": "µM"}
    ]}
  ]
}
